Usually EC50 stands for the concentration giving half of the maximal effect.

The target of the assay is T1, IDO1 (Homo sapiens, UniProt P14902).
T1 construct: HeLa cells were treated with a test compound in the presence of IFNγ, which induces IDO1 expression; host or cells: H1-HeLa cells, IDO1 induced with IFNγ
T1 sequence (P14902 whole entry): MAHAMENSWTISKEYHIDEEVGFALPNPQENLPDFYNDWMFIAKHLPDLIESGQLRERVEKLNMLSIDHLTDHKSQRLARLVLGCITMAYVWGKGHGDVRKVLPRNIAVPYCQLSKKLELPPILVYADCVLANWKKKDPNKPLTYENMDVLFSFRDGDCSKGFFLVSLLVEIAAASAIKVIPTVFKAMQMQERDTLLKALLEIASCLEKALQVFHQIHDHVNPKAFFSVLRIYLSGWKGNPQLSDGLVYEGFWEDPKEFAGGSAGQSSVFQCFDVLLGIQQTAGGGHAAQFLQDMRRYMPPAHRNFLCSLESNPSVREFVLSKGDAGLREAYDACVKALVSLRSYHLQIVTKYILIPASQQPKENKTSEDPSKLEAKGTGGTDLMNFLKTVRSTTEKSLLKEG
In words: Cell-based (HeLa) assay for measurement of IDO1 inhibition (kynurenine levels in supernatant after IFNγ induction). The settings on record: HeLa cells, IFNγ-induced IDO1, kynurenine in supernatant after 48 hour incubation; geometric mean of a minimum of four determinations. A digest of the protocol: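 IDO1 activity is read as kynurenine released into the medium, detected with Ehrlich's reagent (p-dimethylaminobenzaldehyde) at 480 nm after TCA treatment. HeLa cells were exposed 48 h to compounds in 0.5% DMSO alongside IFNγ induction. Values normalized to no-IFNγ and IFNγ controls; four-parameter EC50 given as geometric mean of ≥4 determinations.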
As for `CN(CCNc1nc2nccc(/C(=N/O)Nc3ccc(F)c(Cl)c3)c2[nH]1)C1CCOCC1` [Example 239, N-(3-chloro-4-fluorophenyl)-N′-hydroxy-2-((2-(methyl(tetrahydro-2H-pyran-4-yl)amino)ethyl)amino)-1H-imidazo[4,5-b]pyridine-7-carboximidamide], a half-maximal response (EC50) required 1210 nM.
For `CC(C)N(C)CCNc1nc2nccc(/C(=N/O)Nc3ccc(F)c(Cl)c3)c2[nH]1` [Example 240, N-(3-chloro-4-fluorophenyl)-N′-hydroxy-2-((2-(isopropyl(methyl)amino)ethyl)amino)-1H-imidazo[4,5-b]pyridine-7-carboximidamide], the EC50 worked out at 590 nM.
In the case of `NC1(CNc2nc3nccc(/C(=N/O)Nc4ccc(F)c(Cl)c4)c3[nH]2)CC1` [Example 241, 2-(((1-aminocyclopropyl)methyl)amino)-N-(3-chloro-4-fluorophenyl)-N′-hydroxy-1H-imidazo[4,5-b]pyridine-7-carboximidamide], the EC50 turned out to be 1370 nM.
Under `NC1(CCNc2nc3nccc(/C(=N/O)Nc4ccc(F)c(Cl)c4)c3[nH]2)CC1` [Example 242, 2-((2-(1-aminocyclopropyl)ethyl)amino)-N-(3-chloro-4-fluorophenyl)-N′-hydroxy-1H-imidazo[4,5-b]pyridine-7-carboximidamide] stands 1630 nM.
Under `CNc1nc2nccc(/C(=N/O)Nc3ccc(F)c(Br)c3)c2[nH]1` [Example 257, N-(3-bromo-4-fluorophenyl)-N′-hydroxy-2-(methylamino)-1H-imidazo[4,5-b]pyridine-7-carboximidamide] stands 241 nM.
Under `O/N=C(\Nc1ccc(F)c(Cl)c1)c1ccnc2nc(CCN3CCCCCC3)[nH]c12` [Example 258, 2-(2-(azepan-1-yl)ethyl)-N-(3-chloro-4-fluorophenyl)-N′-hydroxy-1H-imidazo[4,5-b]pyridine-7-carboximidamide] stands 844 nM; under `O/N=C(\Nc1ccc(F)c(Cl)c1)c1ccnc2nc(CCN3CCC3)[nH]c12` [Example 259, 2-(2-(azetidin-1-yl)ethyl)-N-(3-chloro-4-fluorophenyl)-N′-hydroxy-1H-imidazo[4,5-b]-pyridine-7-carboximidamide], 1300 nM; under `O/N=C(\Nc1ccc(F)c(Cl)c1)c1ccnc2nc(CCN3CC[C@@H](O)C3)[nH]c12` [Example 260, (R)—N-(3-chloro-4-fluorophenyl)-N′-hydroxy-2-(2-(3-hydroxypyrrolidin-1-yl)ethyl)-1H-imidazo[4,5-b]pyridine-7-carboximidamide], 3210 nM.
In the case of `O/N=C(\Nc1ccc(F)c(Cl)c1)c1ccnc2nc(CCN3CC[C@H](O)C3)[nH]c12` [Example 261, (S)—N-(3-chloro-4-fluorophenyl)-N′-hydroxy-2-(2-(3-hydroxypyrrolidin-1-yl)ethyl)-1H-imidazo[4,5-b]pyridine-7-carboximidamide], a half-maximal effect (EC50) was put at 3450 nM.
For `O/N=C(\Nc1ccc(F)c(Cl)c1)c1ccnc2nc(CCN3CCC(O)CC3)[nH]c12` [Example 262, N-(3-chloro-4-fluorophenyl)-N′-hydroxy-2-(2-(4-hydroxypiperidin-1-yl)ethyl)-1H-imidazo[4,5-b]pyridine-7-carboximidamide], it took 3240 nM to reach a half-maximal effect (EC50).
The molecule `CN(C)CCc1nc2nccc(/C(=N/O)Nc3ccc(F)c(Br)c3)c2[nH]1` [Example 263, N-(3-bromo-4-fluorophenyl)-2-(2-(dimethylamino)ethyl)-N′-hydroxy-1H-imidazo[4,5-b]pyridine-7-carboximidamide] yielded a concentration giving a half-maximal response (EC50) of 559 nM.
In turn, `CN(C)CCc1nc2nccc(/C(=N/O)Nc3cccc(Cl)c3)c2[nH]1` [Example 264, N-(3-chlorophenyl)-2-(2-(dimethylamino)ethyl),N′-hydroxy-1H-imidazo[4,5-b]pyridine-7-carboximidamide] registered an EC50 of 722 nM.
Then `CN(C)CCc1nc2nccc(/C(=N/O)Nc3cccc(Br)c3)c2[nH]1` [Example 265, N-(3-bromophenyl)-2-(2-(dimethylamino)ethyl)-N′-hydroxy-1H-imidazo[4,5-b]pyridine-7-carboximidamide], with 501 nM; and `CS(=O)(=O)NCCc1nc2nccc(/C(=N/O)Nc3ccc(F)c(Cl)c3)c2[nH]1` [Example 266, N-(3-chloro-4-fluorophenyl)-N′-hydroxy-2-(2-(methylsulfonamido)ethyl)-1H-imidazo[4,5-b]pyridine-7-carboximidamide], with more than 10000 nM; and `NS(=O)(=O)NCCc1nc2nccc(/C(=N/O)Nc3ccc(F)c(Cl)c3)c2[nH]1` [Example 267, N-(3-chloro-4-fluorophenyl)-N′-hydroxy-2-(2-(sulfamoylamino)ethyl)-1H-imidazo[4,5-b]pyridine-7-carboximidamide], with more than 10000 nM.
Then `O/N=C(\Nc1cccc(Cl)c1)c1ccnc2nc(CCN3CCCC3)[nH]c12` [Example 268, N-(3-chlorophenyl)-N′-hydroxy-2-(2-(pyrrolidin-1-yl)ethyl)-1H-imidazo[4,5-b]pyridine-7-carboximidamide], with 952 nM; and `O/N=C(\Nc1cccc(Br)c1)c1ccnc2nc(CCN3CCCC3)[nH]c12` [Example 269, N-(3-bromophenyl)-N′-hydroxy-2-(2-(pyrrolidin-1-yl)ethyl)-1H-imidazo[4,5-b]pyridine-7-carboximidamide], with 979 nM.
Then `CC(=O)NCCc1nc2nccc(/C(=N/O)Nc3ccc(F)c(Cl)c3)c2[nH]1` [Example 270, N-(2-(7-(N-(3-chloro-4-fluorophenyl)-N′-hydroxycarbamimidoyl)-1H-imidazo[4,5-b]pyridin-2-yl)ethyl)acetamide], with more than 10000 nM; and `O/N=C(\Nc1cccc(Cl)c1)c1ccnc2nc(CCN3CCCCC3)[nH]c12` [Example 271, N-(3-chlorophenyl)-N′-hydroxy-2-(2-(piperidin-1-yl)ethyl)-1H-imidazo[4,5-b]pyridine-7-carboximidamide], with 602 nM; and `O/N=C(\Nc1cccc(Br)c1)c1ccnc2nc(CCN3CCCCC3)[nH]c12` [Example 272, N-(3-bromophenyl)-N′-hydroxy-2-(2-(piperidin-1-yl)ethyl)-1H-imidazo[4,5-b]pyridine-7-carboximidamide], with 477 nM.
On to `COC(=O)NCCc1nc2nccc(/C(=N/O)Nc3ccc(F)c(Cl)c3)c2[nH]1` [Example 273, Methyl (2-(7-(N-(3-chloro-4-fluorophenyl)-N′-hydroxycarbamimidoyl)-1H-imidazo[4,5-b]pyridin-2-yl)ethyl)carbamate], for which the EC50 is more than 10000 nM.
Under `COc1ccc(CNCCc2nc3nccc(/C(=N/O)Nc4ccc(F)c(Cl)c4)c3[nH]2)c(OC)c1` [Example 274, N-(3-chloro-4-fluorophenyl)-2-(2-((2,4-dimethoxybenzyl)amino)ethyl)-N′-hydroxy-1H-imidazo[4,5-b]pyridine-7-carboximidamide] stands 1970 nM.
The molecule `O/N=C(\Nc1ccc(F)c(Cl)c1)c1ccnc2nc(CCN3CCC(Cc4ccccc4)CC3)[nH]c12` [Example 275, 2-(2-(4-benzylpiperidin-1-yl)ethyl)-N-(3-chloro-4-fluorophenyl),N′-hydroxy-1H-imidazo[4,5-b]pyridine-7-carboximidamide] came in with an EC50 of 675 nM.
As for `O/N=C(\Nc1ccc(F)c(Cl)c1)c1ccnc2nc(CCN3CC4CCCC(C4)C3)[nH]c12` [Example 276, 2-(2-(3-azabicyclo[3.3.1]nonan-3-yl)ethyl)-N-(3-chloro-4-fluorophenyl)-N′-hydroxy-1H-imidazo[4,5-b]pyridine-7-carboximidamide], it took 618 nM to reach a half-maximal effect (EC50).
Take `O/N=C(\Nc1ccc(F)c(Cl)c1)c1ccnc2nc(CCN3CC4CCC(C4)C3)[nH]c12` [Example 277, 2-(2-(3-azabicyclo[3.2.1]octan-3-yl)ethyl)-N-(3-chloro-4-fluorophenyl)-N′-hydroxy-1H-imidazo[4,5-b]pyridine-7-carboximidamide]: a half-maximal effect (EC50) was put at 576 nM.
Then `CN1CCCC(Nc2nc3nccc(/C(=N/O)Nc4ccc(F)c(Cl)c4)c3[nH]2)C1` (stereo not shown) [Example 278, N-(3-chloro-4-fluorophenyl)-N′-hydroxy-2-((1-methylpiperidin-3-yl)amino)-1H-imidazo[4,5-b]pyridine-7-carboximidamide], with 1070 nM; and `O/N=C(\Nc1ccc(F)c(Cl)c1)c1ccnc2nc(NCCN3CC[C@H](O)C3)[nH]c12` [Example 279, (S)—N-(3-chloro-4-fluorophenyl)-N′-hydroxy-2-((2-(3-hydroxypyrrolidin-1-yl)ethyl)amino)-1H-imidazo[4,5-b]pyridine-7-carboximidamide], with 5280 nM; and `O/N=C(\Nc1ccc(F)c(Cl)c1)c1ccnc2nc(N3CC[C@H](O)C3)[nH]c12` [Example 280, (S)—N-(3-chloro-4-fluorophenyl)-N′-hydroxy-2-(3-hydroxypyrrolidin-1-yl)-1H-imidazo[4,5-b]pyridine-7-carboximidamide], with more than 10000 nM.
Take `COCCN1CCC(Nc2nc3nccc(/C(=N/O)Nc4ccc(F)c(Cl)c4)c3[nH]2)C1` (stereo not shown) [Example 281, N-(3-chloro-4-fluorophenyl)-N′-hydroxy-2-((1-(2-methoxyethyl)pyrrolidin-3-yl)amino)-1H-imidazo[4,5-b]pyridine-7-carboximidamide]: a half-maximal effect (EC50) was put at 1260 nM.
As to `CN1CCOCC1CNc1nc2nccc(/C(=N/O)Nc3ccc(F)c(Cl)c3)c2[nH]1` (stereo not shown) [Example 282, N-(3-chloro-4-fluorophenyl)-N′-hydroxy-2-(((4-methylmorpholin-3-yl)methyl)amino)-1H-imidazo[4,5-b]pyridine-7-carboximidamide], the EC50 was more than 10000 nM.
Then `O/N=C(\Nc1ccc(F)c(Cl)c1)c1ccnc2nc(NCCN3CCCC3)[nH]c12` [Example 283, N-(3-chloro-4-fluorophenyl)-N′-hydroxy-2-((2-(pyrrolidin-1-yl)ethyl)amino)-1H-imidazo[4,5-b]pyridine-7-carboximidamide], with 2720 nM.

The values are drawn from US9951065B2 (Gilead Sciences, Inc., priority 2015, dated 2018).
